Measurements reported in US9958439B2, “Carbohydrate detection” (RICHTER LIFE SCIENCE DEVELOPMENT AB, priority 2012, dated 2018).
Like-named read-outs stand apart in the source and are kept apart here.

Columns and labels:
[1] = Outline: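 3 μM of each LCO probe was added to serial two-fold carbohydrate dilutions in water (10–0.039 or 5–0.019 mg/ml). Excitation spectra were scanned 300–500 nm with emission at 545 nm, in triplicate. Detection was defined as a reproducible shift in λmax and/or RFU versus negative control, with linear regression of RFU against concentration.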
[2] = for RFU change (Correlation analysis) / RFU change (Signal deviation with increasing [Carbohydrate]): 3 μM probe; for RFU change (Correlation analysis): probe-specific excitation λ, emission 545 nm; for RFU change (Signal deviation with increasing [Carbohydrate]): spectral analysis, Excitation 300-500, Emission 545; for Gradient Parameters (gradient of regression line) / Linear relationship / Quality of Gradient: linear regression
Outline: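 LCO probes at 3 μM mixed with serial twofold carbohydrate dilutions in dH2O (10–0.039 or 5–0.019 mg/ml, depending on carbohydrate). Excitation scanned 300–500 nm, emission read at 545 nm; detection defined as reproducible shift in λmax and/or RFU relative to negative control, with linear regression of RFU against concentration.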

[3] = remark: listed apart in the source
Outline: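 LCO probes (3 μM) were added to serial two-fold dilutions of carbohydrate suspensions in dH2O, with excitation scanned 300–500 nm and emission at 545 nm. Detection was a reproducible λmax and/or RFU change versus no-carbohydrate control. RFU was regressed linearly against concentration at the λmax or the lowest-background excitation.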

[4] = for RFU change (Correlation analysis) / RFU change (Signal deviation with increasing [Carbohydrate]) / λmax change: 3 μM probe; for RFU change (Correlation analysis): probe-specific excitation λ, emission 545 nm; for RFU change (Signal deviation with increasing [Carbohydrate]) / λmax change: spectral analysis, Excitation 300-500, Emission 545; for carbohydrate can be detected and/or differentiated by the LCO: conclusion from change in signal magnitude and/or shift in λmax; for Gradient Parameters (gradient of regression line) / Linear relationship / Quality of Gradient: linear regression
Outline: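 Each LCO probe at 3 μM was added to two-fold serial dilutions of carbohydrate in dH2O (10–0.039 mg/ml for β-1,3-glucan, cellulose, chitin; 5–0.019 mg/ml for the others), run in triplicate. Excitation spectra were scanned 300–500 nm with emission at 545 nm. Detection was a reproducible λmax and/or RFU shift versus negative control, with linear regression of RFU against concentration.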

[5] = remark: listed apart in the source
Outline: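 LCO probes at 3 μM mixed with serial two-fold carbohydrate dilutions in water (10–0.039 or 5–0.019 mg/ml), run in triplicate. Excitation scanned 300–500 nm with emission at 545 nm; detection based on reproducible λmax or RFU shift against the no-carbohydrate control, with linear regression of RFU on concentration.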

[6] = for RFU change (Correlation analysis): probe-specific excitation λ, emission 545 nm
Outline: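 LCO probes at 3 μM mixed with serial two-fold dilutions of carbohydrate in dH2O (10–0.039 or 5–0.019 mg/ml, depending on carbohydrate), in triplicate. Excitation scanned 300–500 nm or fixed per probe (λmax or lowest background), emission at 545 nm. Detection taken as reproducible λmax/RFU shift vs no-carbohydrate control; RFU regressed linearly on concentration.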

[7] = Chondroitin Sulfate A 5-0.019 mg/ml, 3 μM probe, spectral analysis, Excitation 300-500, Emission 545
[8] = Chondroitin Sulfate A concentration vs RFU, linear regression
[9] = sodium alginate concentration vs RFU, linear regression
[10] = β-1,3-glucan concentration vs RFU
[11] = glucose concentration vs RFU, linear regression
[12] = Cellulobiose 5-0.019 mg/ml, 3 μM probe, spectral analysis, Excitation 300-500, Emission 545
[13] = amylose concentration vs RFU, linear regression

NCCCC[C@H](NC(=O)Cc1cc(-c2cccs2)sc1-c1ccc(-c2sc(-c3cccs3)cc2CC(=O)N[C@@H](CCCCN)C(=O)[O-])s1)C(=O)[O-].[Na+].[Na+] [pHTA-Lys, penta Hydrogen Thiophene Acetic acid Lysine]
RFU change (Correlation analysis) ([1]; Chondroitin Sulfate A 5-0.019 mg/ml, 3 μM probe, probe-specific excitation λ, emission 545 nm): Increases
RFU change (Signal deviation with increasing [Carbohydrate]) [1, 7]: Decreases
λmax change [1, 7]: No change
Gradient Parameters (gradient of regression line) [1, 8]: 194.8 ± 19.2
Linear relationship [1, 8]: Significant
Quality of Gradient [1, 8]: Positive
carbohydrate can be detected and/or differentiated by the LCO ([1]; Chondroitin sulfate A, conclusion from change in signal magnitude and/or shift in λmax): can be detected and/or differentiated
Sensitivity ([1]; to Chondroitin Sulfate A): Yes
RFU change (Correlation analysis) ([2]; Glycogen 5-0.019 mg/ml): Increases
RFU change (Signal deviation with increasing [Carbohydrate]) ([2]; Glycogen 5-0.019 mg/ml): Increases
carbohydrate can be detected and/or differentiated by the LCO ([2]; Glycogen, conclusion from change in signal magnitude and/or shift in λmax): can be detected and/or differentiated
RFU change (Correlation analysis) ([2]; Heparin 5-0.019 mg/ml): Increases
RFU change (Signal deviation with increasing [Carbohydrate]) ([2]; Heparin 5-0.019 mg/ml): Increases
Gradient Parameters (gradient of regression line) ([2]; glycogen concentration vs RFU): 43.6 ± 7.9
Linear relationship ([2]; glycogen concentration vs RFU): Significant
Quality of Gradient ([2]; glycogen concentration vs RFU): Positive
Gradient Parameters (gradient of regression line) ([2]; heparin concentration vs RFU): 48.4 ± 18.2
Linear relationship ([2]; heparin concentration vs RFU): Significant
Quality of Gradient ([2]; heparin concentration vs RFU): Positive
Sensitivity ([2]; to glycogen): Yes
Sensitivity ([2]; to heparin): Yes
RFU change (Correlation analysis) ([3]; Sodium alginate 5-0.019 mg/ml, 3 μM probe, probe-specific excitation λ, emission 545 nm): Increases
RFU change (Signal deviation with increasing [Carbohydrate]) ([3]; Sodium alginate 5-0.019 mg/ml, 3 μM probe, spectral analysis, Excitation 300-500, Emission 545): Increases
carbohydrate can be detected and/or differentiated by the LCO ([3]; Sodium alginate, conclusion from change in signal magnitude and/or shift in λmax): can be detected and/or differentiated
Gradient Parameters (gradient of regression line) [3, 9]: 55.4 ± 5.3
Linear relationship [3, 9]: Significant
Quality of Gradient [3, 9]: Positive
Sensitivity ([3]; to sodium alginate): Yes
RFU change (Correlation analysis) ([4]; Cellulose 10-[…]): Increase
RFU change (Signal deviation with increasing [Carbohydrate]) ([4]; Cellulose 10-[…]): Increase
λmax change ([4]; Cellulose 10-[…]): Redshift
carbohydrate can be detected and/or differentiated by the LCO ([4]; Cellulose): can be detected and/or differentiated
RFU change (Correlation analysis) ([4]; Chitin 10-[…]): Increases
RFU change (Signal deviation with increasing [Carbohydrate]) ([4]; Chitin 10-[…]): Increases
λmax change ([4]; Chitin 10-[…]): Redshift
carbohydrate can be detected and/or differentiated by the LCO ([4]; Chitin): can be detected and/or differentiated
Gradient Parameters (gradient of regression line) ([4]; cellulose concentration vs RFU): 291.8 ± 46.6
Linear relationship ([4]; cellulose concentration vs RFU): Significant
Quality of Gradient ([4]; cellulose concentration vs RFU): Positive
Gradient Parameters (gradient of regression line) ([4]; chitin concentration vs RFU): 273.8 ± 46.2
Linear relationship ([4]; chitin concentration vs RFU): Significant
Quality of Gradient ([4]; chitin concentration vs RFU): Positive
Sensitivity ([4]; to cellulose): Yes
Sensitivity ([4]; to chitin): Yes
Sensitivity ([4]; to β-1,3-glucan): Yes
carbohydrate can be detected and/or differentiated by the LCO ([4]; β-1,3-Glucan): can be detected and/or differentiated
RFU change (Correlation analysis) ([4]; β-1,3-glucan 10-[…]): Increase
RFU change (Signal deviation with increasing [Carbohydrate]) ([4]; β-1,3-glucan 10-[…]): Decrease
Gradient Parameters (gradient of regression line) [4, 10]: 107.9 ± 16.4
Quality of Gradient [4, 10]: Positive
RFU change (Correlation analysis) ([5]; Glucose 5-0.019 mg/ml, 3 μM probe, probe-specific excitation λ, emission 545 nm): Unclear
RFU change (Signal deviation with increasing [Carbohydrate]) ([5]; Glucose 5-0.019 mg/ml, 3 μM probe, spectral analysis, Excitation 300-500, Emission 545): Unclear
Gradient Parameters (gradient of regression line) [5, 11]: 23.6 ± 13.7
Quality of Gradient [5, 11]: Horizontal
Sensitivity ([5]; to glucose): No
RFU change (Correlation analysis) ([6]; Amylose 5-0.019 mg/ml, 3 μM probe): Increases
RFU change (Signal deviation with increasing [Carbohydrate]) ([6]; Amylose 5-0.019 mg/ml, 3 μM probe, spectral analysis, Excitation 300-500, Emission 545): Increases
carbohydrate can be detected and/or differentiated by the LCO ([6]; Amylose, conclusion from change in signal magnitude and/or shift in λmax): can be detected and/or differentiated
RFU change (Correlation analysis) ([6]; Cellulobiose 5-0.019 mg/ml, 3 μM probe): Unclear
RFU change (Signal deviation with increasing [Carbohydrate]) [6, 12]: Unclear
λmax change [6, 12]: No change
Gradient Parameters (gradient of regression line) [6, 13]: 47.7 ± 18.5
Linear relationship [6, 13]: Significant
Quality of Gradient [6, 13]: Positive
Quality of Gradient ([6]; cellulobiose concentration vs RFU, linear regression): Horizontal
Sensitivity ([6]; to amylose): Yes
Sensitivity ([6]; to cellulobiose): No
